For the experiment, the target named is HSD17B13 (Homo sapiens (Human), UniProt Q7Z5P4). Description: HSD17B13 enzymatic inhibition assay (150 nM or 50 nM HSD17B13). Format: biochemical. The settings on record: 50 nM HSD17B13; read-out: Inhibition of 50 nM of HSD17B13 IC50.
Sequence of HSD17B13 (Q7Z5P4 other isoform, or with tags, fused parts or gaps): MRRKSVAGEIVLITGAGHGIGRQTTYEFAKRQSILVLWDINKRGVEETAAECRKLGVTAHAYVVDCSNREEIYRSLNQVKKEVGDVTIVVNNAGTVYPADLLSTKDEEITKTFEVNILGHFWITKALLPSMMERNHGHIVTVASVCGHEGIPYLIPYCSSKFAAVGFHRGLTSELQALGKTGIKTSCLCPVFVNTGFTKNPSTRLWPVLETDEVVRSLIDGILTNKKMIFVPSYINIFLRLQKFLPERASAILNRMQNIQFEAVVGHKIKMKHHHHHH

On to `Cc1ccc2c(c1)Oc1cc(C)ccc1C2NC(=O)c1ccc(C(C)(C)C)nc1Cl` [Compound 487, 6-(tert-butyl)-2-chloro-N-(3,6-dimethyl-9H-xanthen-9-yl)nicotinamide], for which the IC50 is > 10000 nM.

On to `O=C(NC1c2ccccc2Oc2cc(C3COC3)ccc21)c1ccc(C(F)(F)F)[nH]c1=O` (stereo not shown) [Compound 488, N-(3-(oxetan-3-yl)-9H-xanthen-9-yl)-2-oxo-6-(trifluoromethyl)-1,2-dihydropyridine-3-carboxamide], for which the IC50 was found to be 110 nM.

As for `O=C(NC1c2ccccc2Oc2ccc(C3COC3)cc21)c1ccc(C(F)(F)F)[nH]c1=O` (stereo not shown) [Compound 489, N-(2-(oxetan-3-yl)-9H-xanthen-9-yl)-2-oxo-6-(trifluoromethyl)-1,2-dihydropyridine-3-carboxamide], the half-maximal inhibitory concentration (IC50) turned out to be 230 nM.

As to `Cc1ccc(C(C(=O)Nc2ccc(C(F)(F)F)[nH]c2=O)c2ccc(C)cc2)cc1` [Compound 492, N-(2-oxo-6-(trifluoromethyl)-1,2-dihydropyridin-3-yl)-2,2-di-p-tolylacetamide], the 50% inhibitory concentration (IC50) is > 10000 nM.

`Cc1ccc2c(c1)S(=O)(=O)c1cc(C)ccc1C2NC(=O)c1cc(-c2ccncc2)c(C(F)(F)F)[nH]c1=O` [Compound 493, N-(3,6-dimethyl-10,10-dioxido-9H-thioxanthen-9-yl)-6-oxo-2-(trifluoromethyl)-1,6-dihydro-[3,4′-bipyridine]-5-carboxamide]: the half-inhibitory concentration (IC50) is 90 nM.

Regarding `Cc1ccc2c(c1)Oc1cc(C)ccc1C2NC(=O)c1cc(-c2cc[nH]c(=O)c2)c(C(F)(F)F)[nH]c1=O` [Compound 494, N-(3,6-dimethyl-9H-xanthen-9-yl)-2′,6-dioxo-2-(trifluoromethyl)-1,1′,2′,6-tetrahydro-[3,4′-bipyridine]-5-carboxamide], the IC50 was found to be 20 nM.

For the compound `Cc1ccc2c(c1)Oc1cc(C)ccc1C2NC(=O)c1cc(-c2cccnc2)c(C(F)(F)F)[nH]c1=O` [Compound 496, N-(3,6-dimethyl-9H-xanthen-9-yl)-6-oxo-2-(trifluoromethyl)-1,6-dihydro-[3,3′-bipyridine]-5-carboxamide], the IC50 turned out to be 20 nM.

As for `Cc1ccc2c(c1)Oc1cc(C)ccc1C2NC(=O)c1cc(-c2ccc(=O)[nH]c2)c(C(F)(F)F)[nH]c1=O` [Compound 497, N-(3,6-dimethyl-9H-xanthen-9-yl)-6,6′-dioxo-2-(trifluoromethyl)-1,1′,6,6′-tetrahydro-[3,3′-bipyridine]-5-carboxamide], the IC50 was 30 nM.

As for `COc1cc(-c2cc(C(=O)NC3c4ccc(C)cc4Oc4cc(C)ccc43)c(=O)[nH]c2C(F)(F)F)ccn1` [Compound 498, N-(3,6-dimethyl-9H-xanthen-9-yl)-2′-methoxy-6-oxo-2-(trifluoromethyl)-1,6-dihydro-[3,4′-bipyridine]-5-carboxamide], the IC50 came out at 20 nM.

With `Cc1ccc2c(c1)Oc1cccc(C)c1C2NC(=O)c1cc(Cc2ccccc2)c(C(F)(F)F)[nH]c1=O` (stereo not shown) [Compound 502, 5-benzyl-N-(1,6-dimethyl-9H-xanthen-9-yl)-2-oxo-6-(trifluoromethyl)-1,2-dihydropyridine-3-carboxamide], the IC50 is 260 nM.

For the compound `Cc1ccc2c(c1)Oc1cccc(C)c1C2NC(=O)c1cc(-c2ccncc2)c(C(F)(F)F)[nH]c1=O` (stereo not shown) [Compound 503, N-(1,6-dimethyl-9H-xanthen-9-yl)-6-oxo-2-(trifluoromethyl)-1,6-dihydro-[3,4′-bipyridine]-5-carboxamide], the IC50 amounted to 230 nM.

As to `Cc1ccc2c(c1)Oc1cc(C)ccc1C2NC(=O)c1cc(C2=CCCCC2)c(C(F)(F)F)[nH]c1=O` [Compound 505, 5-(cyclohex-1-en-1-yl)-N-(3,6-dimethyl-9H-xanthen-9-yl)-2-oxo-6-(trifluoromethyl)-1,2-dihydropyridine-3-carboxamide], the IC50 is 80 nM.

As for `Cc1ccc2c(c1)S(=O)(=O)c1cc(C)ccc1C2NC(=O)c1cc(-c2ncccn2)c(C(F)(F)F)[nH]c1=O` [Compound 506, N-(3,6-dimethyl-10,10-dioxido-9H-thioxanthen-9-yl)-2-oxo-5-(pyrimidin-2-yl)-6-(trifluoromethyl)-1,2-dihydropyridine-3-carboxamide], the half-inhibitory concentration (IC50) worked out at 90 nM.

Source of the values: patent US11957687B2 (REGENERON PHARMACEUTICALS, INC., priority 2019, dated 2024).
